From patent US11175289B2, “Application of TRPM8 protein, related peptide fragment and their antibodies” (priority 2016, dated 2021)
Ends that are not written are not given here. * marks the point of attachment. Biotin = O=C1N[C@H]2[C@H](CS[C@H]2CCCCC(=O)*)N1

System: TRPM8 protein and TRPM8 related peptide fragments
Experiment: Antibody identification of monoclonal antibodies
Format: binding, human
Settings: monoclonal antibody against the named antigen
From the text: Freund's adjuvant is adopted for respectively immunizing the mice.
2. Detection of TRPM8 antibody: utilizing a radioimmunoassay (RIA) method.

Q: For Biotin-DEVRQWYVNGVNYFTD [T-5], which Affinity is on record?
A: 10^12 L/mol

Q: What about the Specificity of the same substance?
A: High

Q: Which results are given for Biotin-DGTTYDFAHCTFTGNESKPL [T-3]?
A: Affinity: 10^12 L/mol; Specificity: High

Q: What does the source list for Biotin-FKNEDNETLAWEGVMKENYL [T-2]?
A: Affinity: 10^12 L/mol; Specificity: High

Q: What does the source list for Biotin-LTVIKMEEAGDEIVSNA [T-6]?
A: Affinity: 10^12 L/mol; Specificity: High

Q: For Biotin-VSRNLGPKIIMLQ [T-4], which Affinity is on record?
A: 10^12 L/mol

Q: What about the Specificity of the same substance?
A: High

Q: How did the Affinity turn out when “CEMDI ELHDV SPITRH (CEMDIELHDVSPITRH; HUMAN) [T-12]” was run?
A: 10^12 L/mol

Q: What about the Specificity of the same substance?
A: High

Q: Which results are given for “CFTGNE SKPLCV ELDEH NLPRFPE (CFTGNESKPLCVELDEHNLPRFPE; HUMAN) [T-9]”?
A: Affinity: 10^12 L/mol; Specificity: High

Q: With “CKEKN MESSV CCFKN EDNET (CKEKNMESSVCCFKNEDNET; HUMAN) [T-7]” as the substance, how does the Affinity read?
A: 10^12 L/mol

Q: What about the Specificity of the same substance?
A: High

Q: How did the Affinity turn out when “CSEEM RHRFR QLDTK LNDLKG (CSEEMRHRFRQLDTKLNDLKG; HUMAN) [T-8]” was run?
A: 10^12 L/mol

Q: What about the Specificity of the same substance?
A: High

Q: Which results are given for EMDIELHDVSPITRH (HUMAN) [T-18]?
A: Affinity: 10^12 L/mol; Specificity: High

Q: With FTGNESKPLCVELDEHNLPRFPE (HUMAN) [T-15] as the substance, how does the Affinity read?
A: 10^12 L/mol

Q: What about the Specificity of the same substance?
A: High

Q: For KEKNMESSVCCFKNEDNET (HUMAN) [T-13], which Affinity is on record?
A: 10^12 L/mol

Q: What about the Specificity of the same substance?
A: High

Q: For “NRRND TLDST RTLYSS (NRRNDTLDSTRTLYSS; HUMAN) [T-10]”, which Affinity is on record?
A: 10^12 L/mol

Q: What about the Specificity of the same substance?
A: High

Q: For “NRRNDTLDSTRTLYSSASRSTDLSYS (HUMAN) [T-16]”, which Affinity is on record?
A: 10^12 L/mol

Q: And the Specificity?
A: High

Q: SEEMRHRFRQLDTKLNDLKG (HUMAN) [T-14] was tested. Which Affinity did it give?
A: 10^12 L/mol

Q: And the Specificity?
A: High

Q: With “VEVED ALTSS AVKEK LVRFC (VEVEDALTSSAVKEKLVRFC; HUMAN) [T-11]” as the substance, how does the Affinity read?
A: 10^12 L/mol

Q: And the Specificity?
A: High

Q: VEVEDALTSSAVKEKLVRF (HUMAN) [T-17] was tested. Which Affinity did it give?
A: 10^12 L/mol

Q: What about the Specificity of the same substance?
A: High
